According to US11260062B2, “Pharmaceutical composition for treatment of lung cancer comprising glucocorticoid-based compound” (AJOU UNIVERSITY INDUSTRY-ACADEMIC COOPERATION FOUNDATION, priority 2015, dated 2022):
Residues, ends and D or L forms follow the SMILES beside them. *: point of attachment. Cbz = O=C(OCc1ccccc1)*

Columns and labels:
NRF2 [1] = assay: Western blotting of NRF2 protein in A549 cells; format: cell-based
Method: (§1) Specifically, for Western blotting, the A549 cells expressing Tet-pLKO-NCshRNA (negative control) and three Tet-pLKO-NRF2 shRNAs were treated with doxycycline for 3 days and 6 days, followed by separation of proteins. Each separated 10 μg of the protein was loaded on 8% acrylamide gel, electrophoresed, transferred to nitrocellulose (NC) membrane, and NRF2 antibody (Cell signaling, 1:1000) and actin antibody (SCBT, 1:1000) were diluted in TBST (Tris-Buffered Saline with Tween 20) buffer containing 5% skim milk and reacted overnight at 4° C. Subsequently, the secondary antibody was reacted for 1 hour, washed with TBST, and the protein expression level was measured using ECL (Enhanced chemiluminescence).
Firstly, the A549-tet-on cells transfected with the vector containing GCR-shRNA were constructed and after the treatment with doxycycline and clobetasol propionate, and protein extracts were prepared by hemolysis with cell lysis buffer (Cell signaling technology) supplemented with protease inhibitor cocktail (EMD millipore) to perform Western blotting. Then, western blotting was carried out in the same manner as in the Example 1. At this time, the concentration of the protein was determined by performing a Bradford assay according to the Example 1. In addition, luciferase assays were carried out in the same manner as in the Example 1.
(§2) According to accumulated research results, NRF2 protein levels can be regulated by mRNA transcription, or proteasome related degradation. To confirm whether NRF2 is suppressed through mRNA transcription inhibition or NRF2 is suppressed by promoting proteasome-related degradation, real-time PCR was performed on the cells, and MG132, a proteasome inhibitor, was treated and Western blotting was performed in the same manner as in the Example 1.
In general, proteasome degradation of the NRF2 protein consists of two pathways as shown in FIG. 5a: i.e. a pathway by KEAP1 and a pathway by GSK3-β-TrCP. […]

NRF2 [2] = assay: ARE-luciferase assay for NRF2 activity in A549-ARE cells; format: cell-based
Method: In addition, A549-ARE cells were firstly dispensed into 5×10^3 cells per well in a 96 well plate, and each of the clinical compounds was treated with various concentrations (1 μM or 5 μM) after 24 hours. After 24 hours, 30 μl of a lysis buffer was added, and the mixture was dissolved at 4° C. for 40 minutes using a rocker. 20 μl of the dissolved product was added to a 96-well white plate and 100 μl of a luciferase substrate buffer having the following composition was added thereto and luciferase activity was measured by using a plate reader.
The remaining dissolved product was diluted five times with distilled water (DW) and the protein concentration was measured by the Bradford assay (BioRad). Specifically, 200 μl of the Bradford reagent (Coomassie Brilliant Blue G-250) diluted […] with distilled water was reacted with 5 μl of the remaining dissolved product and absorbance was measured at 595 nm. The protein concentration of the dissolved products was calculated by the same experiment using BSA solution as a standard protein. The luciferase value was calibrated by dividing the luciferase value measured above by the measured protein concentration.
Namely, the luciferase assays were performed using […] cells as the method of the Example 1.

NRF2 [3] = assay: Western blotting of nuclear and cytoplasmic fractions (NRF2 migration to the nucleus); format: cell-based
Source text: Furthermore, GSK3 inhibits the migration of NRF2 to the nucleus, as known so far.

A549 = assay: Soft agar assay, A549; format: cell-based; details: A549 (KEAP1-mutant, LKB1-mutant), 2 weeks
Method: (§3) The synergistic anticancer effects of the treatment of clobetasol propionate sole and the combined use with rapamycin, an mTOR inhibitor on LKB1/KEAP1 normal lung cancer cell line H1299, KEAP1 mutant cell line H2228, LKB1/KEAP1 mutant lung cancer cell lines A549 and H460 were analyzed by soft agar assay. In order to confirm whether the tumor inhibitory effect of clobetasol propionate was due to NRF2 inhibition, the effect was compared with tumor suppression effect in NRF2 knock-down lung cancer cell line using NRF2-shRNA-2, which was used in the Example 2.
(§4) Specifically, […] of a 0.7% agar-containing DMEM medium was added into a 12-well plate and was solidified (bottom agar) and 300 μl of a DMEM medium containing 3×10^3 cells and 0.35% agar was placed on the solidified agar medium and solidified (top agar+/− Doxycycline). After solidification, 250 μl of DMEM medium (+/− Doxycycline) was added and the number of colonies formed after culturing for 2 weeks in a CO2 incubator was determined, and the result was shown in FIGS. 7a to 7e.

A549-luc-C8 cells = assay: Xenograft assay with A549 cell line, tumor volume; format: in vivo, Balb/c-nu mice; details: 40 days
Source text: Thereafter, mice were sacrificed in a 7.5% CO2 chamber and tumors were obtained for further analysis.

H1299 = assay: Soft agar assay, H1299; format: cell-based; details: H1299 (KEAP1-normal, LKB1-normal), 2 weeks
Method: as §3, §4

H2228 = assay: Soft agar assay, H2228; format: cell-based; details: H2228 (KEAP1-mutant, LKB1-normal), 2 weeks
Method: as §3, §4

[4] = system: A549 and H2228 cell lines; assay: Hydrogen peroxide (active oxygen) measurement with CMH2DCF-DA; format: cell-based
Method: In addition, because ME1 and GCLM proteins have detoxification activity of hydrogen peroxide, to confirm this change, the amount of hydrogen peroxide after the treatment with clobetasol propionate was measured as follows: The A549 and H2228 cell lines were cultured in 5 μM CMH2DCF-DA (Invitrogen) after the incubation for 30 minutes, the cultured cells were washed twice with phosphate buffered saline and incubated in the dark for 40 minutes with 90% dimethylsulfoxide (DMSO) and 10% PBS, and the fluorescent dye was released. After the culture, the supernatant of the culture liquid was dispensed into a 96-well plate and the amount of fluorescence was measured at 480/530 nm. For standardization of the measured fluorescence intensity, the cells remaining after removing the supernatant and washing with PBS, were stained with a crystal violet solution (20% methanol and 0.5% crystal violet) for 10 minutes at room temperature. After washing three times, the incubation was performed for solubilization in 1% SDS solution and absorbance at 570 nm was measured.

H460 = assay: Soft agar assay, H460; format: cell-based; details: H460 (KEAP1-mutant, LKB1-mutant), sole treatment
Method: as §3, §4
Thereafter, the synergistic effect was analyzed when clobetasol propionate and rapamycin were simultaneously treated, or NRF2 was knocked down using NRF2-shRNA and treated with rapamycin.

[5] = Xenograft assay, body weight / side effects; format: in vivo, Balb/c-nu mice; details: all treatment groups, 40 days
Method: On the other hand, xenograft assay was performed using A549 cell line. Specifically, Balb/c-nu mice (6-8 weeks of age, Orient Bio, Seongnam, Korea) were prepared to perform tumor genografts and A549-luc-C8 cells (Perkin Elmer, 5.0×10^6/head) were injected subcutaneously into the mice. Two weeks later, when the size of tumors reached 50-100 mm^3, mice were divided to 6 groups: a control group administered with only vehicle (200 μl of PBS containing 1.2% DMSO, 0.25% PEG 400 and 0.25% tween 80), a group administered with 0.5 mg/kg of clobetasol propionate (CP), a group administered with 1 mg/kg of clobetasol propionate, a group administered with 1 mg/kg of rapamycin, and Combination 1 (CP 0.5 mg/kg+rapamycin 1 mg/kg) and Combination 2 (CP 1 mg/kg+rapamycin 1 mg/kg). Then, for the next 40 days, the vehicle and rapamycin (n=5 per group) were injected intraperitoneally daily (5 days per week) and clobetasol propionate was injected intraperitoneally once every 2 days (3 days per week).
Primary tumor size and body weight were measured every 3 to 4 days by a caliper and a balance, and the volume of the tumor was V (mm^3)=(A×B^2)/2 (V is volume, A Is the long diameter and B is the short diameter).

NRF2 [6] = assay: Real-time PCR of NRF2 mRNA in A549 cells; format: cell-based
Method: as §2
Specifically, for real-time PCR, total RNA was extracted from A549 cells using TRIZol (Invitrogen). Then, 1 μg of total RNA was reverse transcribed to cDNA using oligo dT primer and SuperScript II Reverse Transcriptase according to the manufacturer's instructions (Invitrogen). Thereafter, PCR was performed according to the manufacturer's instructions (Affymetrix) using HotStart-IT SYBR Green qPCR Master Mix.

[7] = system: NRF2 target proteins (G6PD, PGD, ME1, GCLM, AKR1B10 and AKR1C3); assay: Western blotting of NRF2 target proteins in KEAP1 mutant cells; format: cell-based; details: 2, 4 or 5 days
Method: In order to confirm the effect of glucocorticoid on cells having high NRF2-activity, KEAP1 mutant cells (A549 and H2228) were treated with clobetasol propionate for 2 days, 4 days or 5 days, the expression of major NRF2 target proteins (G6PD, PGD, ME1, GCLM, AKR1B10 and AKR1C3) associated with redox regulation was measured by the Western blotting. As a control, the cell was used, in which NRF2-shRNA was transformed to H2228 cell line to inhibit NRF2 expression.

NRF2 [8] = assay: Verification of doxycycline-inducible NRF2-shRNA in A549-ARE cells (Western blotting, luciferase, GFP); format: cell-based; details: doxycycline-induced, compared among three NRF2-shRNAs
Method: In order to construct a Tet-inducible shRNA expression system, the following shRNAs were inserted into a tet-pLKO-pyro vector (Dmitri Wiederschain: Addgene plasmid #21915) and then A549-ARE cell line expressing doxycycline-inducible NRF2-shRNA was established by the transduction.
Then, 0.2 μg/mL of doxycycline (DOX; Clontech) was treated every 2 days in the medium to induce NRF2-shRNA expression. Thereafter, the NRF2 expression inhibition efficiency was verified by Western blotting, luciferase activity measurement and GFP expression measurement using a fluorescence microscope.
as §1

[9] = KEAP1 mutant A549 cells, co-treatment with clobetasol propionate
[10] = co-treatment with clobetasol propionate
[11] = A549-tet-on GCR-shRNA cells, effect blocked by inhibition of GCR expression

Cc1c[nH]c(-c2cnc(NCCNc3ccc(C#N)cn3)nc2-c2ccc(Cl)cc2Cl)n1 [GSK3 inhibitor, CT99021]
NRF2 proteolysis induced by clobetasol propionate, on GSK3 inhibitor treatment (NRF2 [1]; [9]): inhibited | inhibition of activity of NRF2 induced by clobetasol propionate, on GSK3 inhibitor treatment (NRF2 [2]; [9]): inhibited | effect of clobetasol propionate on NRF2 migration into the nucleus, on GSK3 inhibitor treatment (NRF2 [3]; under the treatment of MG132, co-treatment with clobetasol propionate): completely blocked

CC(C)C[C@@H](C=O)NC(=O)[C@H](CC(C)C)NC(=O)[C@H](CC(C)C)NC(=O)OCc1ccccc1 [MG132] (Cbz-Leu-Leu-Leu-aldehyde)
amount of NRF2 protein inhibited by clobetasol propionate, on MG132 treatment (NRF2 [1]; [10]): recovered | inhibition of NRF2 activity by glucocorticoids, on MG132 treatment (NRF2 [2]; [10]): does not recover

CCC(=O)O[C@]1(C(=O)CCl)[C@@H](C)C[C@H]2[C@@H]3CCC4=CC(=O)C=C[C@]4(C)[C@@]3(F)[C@@H](O)C[C@@]21C [clobetasol propionate]
cell growth (colonies in soft agar) (A549): strongly inhibited | anticancer effect (tumor volume) (A549-luc-C8 cells; 0.5 mpk intraperitoneally once every 2 days): distinct anticancer effect | anticancer effect (tumor volume) (A549-luc-C8 cells; 1 mpk intraperitoneally once every 2 days): distinct anticancer effect | cell growth (colonies in soft agar) (H1299): did not significantly affect | cell growth (colonies in soft agar) (H2228): strongly inhibited | active oxygen (hydrogen peroxide) ([4]; A549): significantly increased | active oxygen (hydrogen peroxide) ([4]; H2228): significantly increased | cell growth (colonies in soft agar) (H460): slightly inhibited | level of the NRF2 protein (Western blot) (NRF2 [1]; [11]): significantly reduced | body weight of the mice [5]: no significant change | time for which inhibition of NRF2 activity was maintained (NRF2 [2]; 100 nM, measured at 8, 24 and 48 hours): at least 48 hours | NRF2 inhibitory effect at 1 μM compared among 13 GCs-based drugs (NRF2 [2]; 1 μM): most excellent inhibitory effect | activity of the NRF2 protein (luciferase) (NRF2 [2]; [11]): significantly reduced | concentration from which excellent NRF2 inhibitory effect is shown (luciferase) (NRF2 [2]; concentration comparison of 13 GCs-based drugs): ≥ 1 nM | mRNA level of NRF2 (NRF2 [6]): did not affect | migration of NRF2 into the nucleus (NRF2 [3]; under the treatment of MG132): inhibited | NRF2 target protein expression ([7]; A549 cell line): effectively inhibited | expression of NRF2 target which has antioxidative activity ([7]; H2228 cell line): effectively inhibited

CO[C@H]1C[C@@H]2CC[C@@H](C)[C@@](O)(O2)C(=O)C(=O)N2CCCC[C@H]2C(=O)O[C@H]([C@H](C)C[C@@H]2CC[C@@H](O)[C@H](OC)C2)CC(=O)[C@H](C)/C=C(\C)[C@@H](O)[C@@H](OC)C(=O)[C@H](C)C[C@H](C)/C=C/C=C/C=C/1C [rapamycin]
body weight of the mice [5]: no significant change

NRF2sh-2: doxycyclin-inducible NRF2-shRNA, SEQ. NO. 2 of Table 1 (CCGGGCTCCTACTGTGATGTGAAATCTCGAGATTTCACATCACAGTAGGAGCTTTTTG)
inhibition of NRF2 protein expression, luciferase activity and GFP signal (NRF2 [8]): most effectively
